Reference: US20090181963A1, “3H-[1,2,3]TRIAZOLO[4,5-D]PYRIMIDINE COMPOUNDS, THEIR USE AS mTOR KINASE AND PI3 KINASE INHIBITORS, AND THEIR [sequence]” (Wyeth, priority 2008, published 2009)

What was measured:
PI3 Kinase γ = PI3 Kinase γ (Homo sapiens, UniProt P48736); assay: Fluorescence polarization assay for PI3K (PI3 Kinase γ); type: biochemical; settings: diC8-PI(4,5)P2 substrate, 25 μM ATP, one hour at 25° C.
PI3 Kinase α = PI3 Kinase α (Homo sapiens, UniProt P42336); assay: Fluorescence polarization assay for PI3K (PI3 Kinase α); type: biochemical; settings: diC8-PI(4,5)P2 substrate, 25 μM ATP, one hour at 25° C.
Sequence of PI3 Kinase α (P42336 whole entry): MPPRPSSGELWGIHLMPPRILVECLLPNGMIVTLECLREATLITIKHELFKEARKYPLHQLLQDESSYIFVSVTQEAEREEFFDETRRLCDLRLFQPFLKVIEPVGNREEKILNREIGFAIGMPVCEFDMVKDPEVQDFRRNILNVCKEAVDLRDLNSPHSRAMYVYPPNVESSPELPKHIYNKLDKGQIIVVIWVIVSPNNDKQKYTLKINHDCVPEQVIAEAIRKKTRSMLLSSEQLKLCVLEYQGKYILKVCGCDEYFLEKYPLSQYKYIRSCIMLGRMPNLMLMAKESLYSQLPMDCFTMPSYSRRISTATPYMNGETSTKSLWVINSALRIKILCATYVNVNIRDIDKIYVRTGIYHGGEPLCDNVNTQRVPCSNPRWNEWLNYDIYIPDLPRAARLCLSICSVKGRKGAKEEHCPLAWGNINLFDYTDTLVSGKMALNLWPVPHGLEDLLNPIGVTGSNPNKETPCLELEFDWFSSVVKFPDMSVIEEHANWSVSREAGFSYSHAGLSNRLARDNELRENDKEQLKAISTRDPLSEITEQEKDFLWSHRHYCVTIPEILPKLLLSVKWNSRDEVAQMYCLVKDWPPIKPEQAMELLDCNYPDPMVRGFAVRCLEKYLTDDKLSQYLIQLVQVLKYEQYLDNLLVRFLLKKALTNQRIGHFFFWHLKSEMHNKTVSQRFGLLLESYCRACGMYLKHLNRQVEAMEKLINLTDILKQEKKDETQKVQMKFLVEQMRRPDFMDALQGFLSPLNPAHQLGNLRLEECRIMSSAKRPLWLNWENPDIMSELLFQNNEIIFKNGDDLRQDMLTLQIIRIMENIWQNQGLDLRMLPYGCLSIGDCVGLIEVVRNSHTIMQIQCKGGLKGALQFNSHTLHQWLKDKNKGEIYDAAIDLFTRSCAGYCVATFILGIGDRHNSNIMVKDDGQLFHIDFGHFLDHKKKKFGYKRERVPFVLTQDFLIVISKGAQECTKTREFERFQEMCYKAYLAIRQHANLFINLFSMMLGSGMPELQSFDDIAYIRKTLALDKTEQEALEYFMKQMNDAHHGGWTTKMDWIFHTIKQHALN
Sequence of PI3 Kinase α (P27986 whole entry partner): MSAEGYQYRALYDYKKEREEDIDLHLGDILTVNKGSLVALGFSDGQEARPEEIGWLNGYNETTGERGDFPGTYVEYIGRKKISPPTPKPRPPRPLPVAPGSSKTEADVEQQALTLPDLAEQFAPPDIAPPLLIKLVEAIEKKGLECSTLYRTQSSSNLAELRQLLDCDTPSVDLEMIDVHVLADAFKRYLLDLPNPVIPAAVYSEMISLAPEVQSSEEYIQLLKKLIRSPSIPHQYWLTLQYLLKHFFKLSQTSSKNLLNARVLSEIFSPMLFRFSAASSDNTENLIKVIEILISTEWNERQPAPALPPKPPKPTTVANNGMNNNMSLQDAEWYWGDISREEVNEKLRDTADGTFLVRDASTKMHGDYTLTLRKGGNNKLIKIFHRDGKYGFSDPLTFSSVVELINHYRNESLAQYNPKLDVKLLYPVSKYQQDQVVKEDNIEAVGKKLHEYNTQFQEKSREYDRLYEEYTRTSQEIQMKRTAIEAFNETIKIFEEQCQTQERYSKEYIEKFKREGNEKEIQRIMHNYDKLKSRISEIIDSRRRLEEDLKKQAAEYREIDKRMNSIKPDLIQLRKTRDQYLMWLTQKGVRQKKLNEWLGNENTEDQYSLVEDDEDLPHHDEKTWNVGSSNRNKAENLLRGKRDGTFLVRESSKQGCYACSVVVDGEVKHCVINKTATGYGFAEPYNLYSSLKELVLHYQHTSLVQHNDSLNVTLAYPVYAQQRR

Sequence of PI3 Kinase γ (P48736 whole entry): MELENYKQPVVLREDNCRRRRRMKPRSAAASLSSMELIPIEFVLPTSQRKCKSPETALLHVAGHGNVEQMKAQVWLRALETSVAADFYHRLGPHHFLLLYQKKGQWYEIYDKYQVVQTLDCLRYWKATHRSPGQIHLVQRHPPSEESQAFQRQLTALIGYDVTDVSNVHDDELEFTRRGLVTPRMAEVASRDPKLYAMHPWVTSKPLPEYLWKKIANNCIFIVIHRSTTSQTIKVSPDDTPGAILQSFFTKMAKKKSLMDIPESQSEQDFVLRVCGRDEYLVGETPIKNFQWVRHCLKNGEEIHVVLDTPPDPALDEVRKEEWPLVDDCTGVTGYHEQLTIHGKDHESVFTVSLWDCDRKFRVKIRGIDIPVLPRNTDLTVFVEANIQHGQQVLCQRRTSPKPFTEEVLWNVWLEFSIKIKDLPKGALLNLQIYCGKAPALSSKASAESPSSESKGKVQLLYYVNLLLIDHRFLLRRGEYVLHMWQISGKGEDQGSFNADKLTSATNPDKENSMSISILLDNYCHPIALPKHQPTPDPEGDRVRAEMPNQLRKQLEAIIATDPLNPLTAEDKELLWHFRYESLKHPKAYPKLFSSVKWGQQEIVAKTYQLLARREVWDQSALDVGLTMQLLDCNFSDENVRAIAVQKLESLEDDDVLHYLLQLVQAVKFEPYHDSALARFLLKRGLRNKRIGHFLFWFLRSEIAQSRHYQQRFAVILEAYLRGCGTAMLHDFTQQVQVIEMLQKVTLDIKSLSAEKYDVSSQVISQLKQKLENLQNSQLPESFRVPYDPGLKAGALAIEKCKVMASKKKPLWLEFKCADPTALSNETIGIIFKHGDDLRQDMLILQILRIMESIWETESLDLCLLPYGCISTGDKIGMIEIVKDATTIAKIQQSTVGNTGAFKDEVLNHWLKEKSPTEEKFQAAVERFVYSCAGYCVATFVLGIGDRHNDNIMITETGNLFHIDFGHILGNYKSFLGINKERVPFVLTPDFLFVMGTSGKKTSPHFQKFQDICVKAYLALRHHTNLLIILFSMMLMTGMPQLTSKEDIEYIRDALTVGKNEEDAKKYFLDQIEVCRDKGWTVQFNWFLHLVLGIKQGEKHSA

Structure (SMILES) | IC50 (PI3 Kinase γ) | IC50 (PI3 Kinase α)
OCc1cncc(-c2nc(N3CCOCC3)c3nnn(C4CCNCC4)c3n2)c1 [Example 174, [5-(7-morpholin-4-yl-3-piperidin-4-yl-3H-[1,2,3]triazolo[4,5-d]pyrimidin-5-yl)pyridin-3-yl]methanol] | 956 nM | 285 nM
CC(=O)N1CCN(CCn2nnc3c(N4CCOCC4)nc(-c4cccc(O)c4)nc32)CC1 [Example 105, 3-{3-[2-(4-acetylpiperazin-1-yl)ethyl]-7-morpholin-4-yl-3H-[1,2,3]triazolo[4,5-d]pyrimidin-5-yl}phenol] | 2960 nM | 1380 nM
OCc1cccc(-c2nc(N3CCOCC3)c3nnn(-c4cccc(CO)c4)c3n2)c1 [Example 117, [(7-morpholin-4-yl-3H-[1,2,3]triazolo[4,5-d]pyrimidine-3,5-diyl)di-3,1-phenylene]dimethanol] | 144 nM | 38.3 nM
Oc1cccc(-c2nc(N3CCOCC3)c3nnn(CCN4CCN(Cc5ccco5)CC4)c3n2)c1 [Example 113, 3-(3-{2-[4-(2-furylmethyl)piperazin-1-yl]ethyl}-7-morpholin-4-yl-3H-[1,2,3]triazolo[4,5-d]pyrimidin-5-yl)phenol] | 3350 nM | 726 nM
CCN1CCCC1CNC(=O)Nc1ccc(-c2nc(N3CCOCC3)c3nnn(C(C)C)c3n2)cc1 (stereo not drawn) [Example 92, 1-(1-ethyl-pyrrolidin-2-ylmethyl)-3-[4-(3-isopropyl-7-morpholin-4-yl-3H-[1,2,3]triazolo[4,5-d]pyrimidin-5-yl)-phenyl]-urea] | 645 nM | 149 nM
Cn1nccc1CN1CCC(n2nnc3c(N4CCOCC4)nc(-c4cncc(O)c4)nc32)CC1 [Example 30, 5-(3-{1-[(1-methyl-1H-pyrazol-5-yl)methyl]piperidin-4-yl}-7-morpholin-4-yl-3H-[1,2,3]triazolo[4,5-d]pyrimidin-5-yl)pyridin-3-ol] | 2860 nM | 231 nM
CC(C)(C)OC(=O)N1CCN(c2ccc(NC(=O)c3ccc(Cn4nnc5c(N6CCOCC6)nc(-c6cccc(O)c6)nc54)cc3)cc2)CC1 [Example 218, tert-Butyl 4-{4-[(4-{[5-(3-hydroxyphenyl)-7-morpholin-4-yl-3H-[1,2,3]triazolo[4,5-d]pyrimidin-3-yl]methyl}benzoyl)amino]phenyl}piperazine-1-carboxylate] | 8080 nM | 71 nM
O=C(Nc1ccc(F)cc1)c1ccc(Cn2nnc3c(N4CCOCC4)nc(-c4cccc(O)c4)nc32)cc1 [Example 217, N-(4-fluorophenyl)-4-{[5-(3-hydroxyphenyl)-7-morpholin-4-yl-3H-[1,2,3]triazolo[4,5-d]pyrimidin-3-yl]methyl}benzamide] | 240 nM | 240 nM
COC(=O)c1ccc(Cn2nnc3c(N4CCOCC4)nc(-c4cc(O)cc(F)c4)nc32)cc1 [Example 244, methyl 4-{[5-(3-fluoro-5-hydroxyphenyl)-7-morpholin-4-yl-3H-[1,2,3]triazolo[4,5-d]pyrimidin-3-yl]methyl}benzoate] | 1610 nM | 1510 nM
c1cc(-c2nc(N3CCOCC3)c3nnn(CCCN4CCCC4)c3n2)c2cn[nH]c2c1 [Example 11, 5-(1H-indazol-4-yl)-7-morpholin-4-yl-3-(3-pyrrolidin-1-ylpropyl)-3H-[1,2,3]triazolo[4,5-d]pyrimidine] | 132 nM | 83 nM
O=C(Nc1ccccc1)Nc1ccc(-c2nc(N3CCOCC3)c3nnn(CCO)c3n2)cc1 [Example 186, 1-{4-[3-(2-hydroxyethyl)-7-morpholin-4-yl-3H-[1,2,3]triazolo[4,5-d]pyrimidin-5-yl]phenyl}-3-phenylurea] | 22 nM | 4.7 nM
Oc1cncc(-c2nc(N3CCOCC3)c3nnn(C4CCN(Cc5ccc(Br)nc5)CC4)c3n2)c1 [Example 15, 5-(3-{1-[(6-bromopyridin-3-yl)methyl]piperidin-4-yl}-7-morpholin-4-yl-3H-[1,2,3]triazolo[4,5-d]pyrimidin-5-yl)pyridin-3-ol] | 106 nM | 16 nM
CN(C)CCCOc1ccc(CN2CC(Cn3nnc4c(N5CCOCC5)nc(-c5ccc(NC(=O)Nc6ccccc6)cc5)nc43)C2)cc1 [Example 194, 1-(4-{3-[(1-{4-[3-(Dimethylamino)propoxy]benzyl}azetidin-3-yl)methyl]-7-morpholin-4-yl-3H-[1,2,3]triazolo[4,5-d]pyrimidin-5-yl}phenyl)-3-phenylurea] | 210 nM | 31 nM
O=C(NCCN1CCCC1)c1ccc(Cn2nnc3c(N4CCOCC4)nc(-c4cccc(O)c4)nc32)cc1 [Example 213, 4-{[5-(3-hydroxyphenyl)-7-morpholin-4-yl-3H-[1,2,3]triazolo[4,5-d]pyrimidin-3-yl]methyl}-N-(2-pyrrolidin-1-ylethyl)benzamide] | 1380 nM | 282 nM
O=C(Nc1ccncc1)Nc1ccc(-c2nc(N3CCOCC3)c3nnn(C4CC4)c3n2)cc1 [Example 78, 1-(4-(3-cyclopropyl-7-morpholino-3H-[1,2,3]triazolo[4,5-d]pyrimidin-5-yl)phenyl)-3-(pyridin-4-yl)urea] | 13.5 nM | 6 nM
O=C(Nc1ccccc1)Nc1ccc(-c2nc(N3CCOCC3)c3nnn(CC4CN(Cc5ccc(-c6ccncc6)cc5)C4)c3n2)cc1 [Example 193, 1-[4-(7-Morpholin-4-yl-3-{[1-(4-pyridin-4-ylbenzyl)azetidin-3-yl]methyl}-3H-[1,2,3]triazolo[4,5-d]pyrimidin-5-yl)phenyl]-3-phenylurea] | 408 nM | 68 nM
CN(C)CCCOc1ccc(CN2CCC(n3nnc4c(N5CCOCC5)nc(-c5cccc(O)c5)nc43)CC2)cc1 [Example 146, 3-[3-(1-{4-[3-(dimethylamino)propoxy]benzyl}piperidin-4-yl)-7-morpholin-4-yl-3H-[1,2,3]triazolo[4,5-d]pyrimidin-5-yl]phenol] | 280 nM | 13 nM
CCn1nnc2c(N3CCOC[C@@H]3C)nc(-c3ccc(NC(=O)Nc4ccc(C#N)cc4)cc3)nc21 [Example 75, (S)-1-(4-cyanophenyl)-3-(4-(3-ethyl-7-(3-methylmorpholino)-3H-[1,2,3]triazolo[4,5-d]pyrimidin-5-yl)phenyl)urea] | 92.5 nM | 13.5 nM
Oc1cncc(-c2nc(N3CCOCC3)c3nnn(C4CCN(Cc5ccc(F)cc5F)CC4)c3n2)c1 [Example 23, 5-{3-[1-(2,4-difluorobenzyl)piperidin-4-yl]-7-morpholin-4-yl-3H-[1,2,3]triazolo[4,5-d]pyrimidin-5-yl}pyridin-3-ol] | 44 nM | 68 nM
CCn1nnc2c(N3CCOCC3)nc(-c3ccc(NC(=O)Nc4ccc(C(=O)N(C)CCNC)cc4)cc3)nc21 [Example 52, 4-({[4-(3-ethyl-7-morpholin-4-yl-3H-[1,2,3]triazolo[4,5-d]pyrimidin-5-yl)phenyl]carbamoyl}amino)-N-methyl-N-[2-(methylamino)ethyl]benzamide] | 11.5 nM | < 1.9 nM
Nc1ncc(CN2CCC(n3nnc4c(N5CCOCC5)nc(-c5cncc(O)c5)nc43)CC2)s1 [Example 171, 5-(3-{1-[(2-amino-1,3-thiazol-5-yl)methyl]piperidin-4-yl}-7-morpholin-4-yl-3H-[1,2,3]triazolo[4,5-d]pyrimidin-5-yl)pyridin-3-ol] | 144 nM | 76.5 nM
CNC(=O)Nc1ccc(-c2nc(N3CCOCC3)c3nnn(C4CCN(Cc5ccccc5)CC4)c3n2)cc1 [Example 6, 1-{4-[3-(1-benzylpiperidin-4-yl)-7-morpholin-4-yl-3H-[1,2,3]triazolo[4,5-d]pyrimidin-5-yl]phenyl}-3-methylurea] | 620 nM | 100 nM
Oc1cccc(-c2nc(N3CCOCC3)c3nnn(CCCN4CCCC4)c3n2)c1 [Example 9, 3-[7-morpholin-4-yl-3-(3-pyrrolidin-1-ylpropyl)-3H-[1,2,3]triazolo[4,5-d]pyrimidin-5-yl]phenol] | 242 nM | 57 nM
CC(C)(C)OC(=O)Cn1nnc2c(N3CCOCC3)nc(-c3cccc(O)c3)nc21 [Example 233, tert-butyl [5-(3-hydroxyphenyl)-7-morpholin-4-yl-3H-[1,2,3]triazolo[4,5-d]pyrimidin-3-yl]acetate] | 2720 nM | 501 nM
CCn1nnc2c(N3CCOCC3)nc(-c3ccc(NC(=O)Nc4ccc(N5CCN(C)CC5)cc4)cc3)nc21 [Example 259, 1-[4-(3-ethyl-7-morpholin-4-yl-3H-[1,2,3]triazolo[4,5-d]pyrimidin-5-yl)phenyl]-3-[4-(4-methylpiperazin-1-yl)phenyl]urea] | 4 nM | 
CCn1nnc2c(N3CCOCC3)nc(-c3ccc(NC(=O)Nc4ccc(C(=O)N5CCN(C)CC5)nc4)cc3)nc21 [Example 289, 1-[4-(3-ethyl-7-morpholin-4-yl-3H-[1,2,3]triazolo[4,5-d]pyrimidin-5-yl)phenyl]-3-{6-[(4-methylpiperazin-1-yl)carbonyl]pyridin-3-yl}urea] | 6 nM | 
CC(C)n1nnc2c(N3CCOCC3)nc(-c3ccc(NC(=O)Nc4ccc(NS(C)(=O)=O)cc4)cc3)nc21 [Example 279, N-[4-({[4-(3-isopropyl-7-morpholin-4-yl-3H-[1,2,3]triazolo[4,5-d]pyrimidin-5-yl)phenyl]carbamoyl}amino)phenyl]methanesulfonamide] | 12 nM | 
CC(C)n1nnc2c(N3CCOCC3)nc(-c3ccc(NC(=O)Nc4ccc(N)cc4)cc3)nc21 [Example 280, 1-(4-aminophenyl)-3-[4-(3-isopropyl-7-morpholin-4-yl-3H-[1,2,3]triazolo[4,5-d]pyrimidin-5-yl)phenyl]urea] | 7.5 nM | 
CCn1nnc2c(N3CCOCC3)nc(-c3ccc(NC(=O)Nc4ccc(NCc5ccc(F)nc5)cc4)cc3)nc21 [Example 254, 1-[4-(3-ethyl-7-morpholin-4-yl-3H-[1,2,3]triazolo[4,5-d]pyrimidin-5-yl)phenyl]-3-(4-{[(6-fluoropyridin-3-yl)methyl]amino}phenyl)urea] | 7.5 nM | 
CCn1nnc2c(N3CCOCC3)nc(-c3ccc(NC(=O)Nc4ccc(NCc5ccc(OC)nc5)cc4)cc3)nc21 [Example 255, 1-[4-(3-ethyl-7-morpholin-4-yl-3H-[1,2,3]triazolo[4,5-d]pyrimidin-5-yl)phenyl]-3-(4-{[(6-methoxypyridin-3-yl)methyl]amino}phenyl)urea] | 5 nM | 
